In PubChem BioAssay AID1508610 (The Scripps Research Institute Molecular Screening Center, 2020):
Calls of active or inactive are those of the source. No rule for the calls is given here.

Biological target: G-protein coupled receptor 151 (Homo sapiens) (UniProt Q8TDV0)
Experiment: GPR151 activator potency, dose response, cell-based (AID 1508610)
Conditions: cell-based GPR151 activation reporter

G-protein coupled receptor 151 (Homo sapiens), sequence (Q8TDV0 whole entry, looked up): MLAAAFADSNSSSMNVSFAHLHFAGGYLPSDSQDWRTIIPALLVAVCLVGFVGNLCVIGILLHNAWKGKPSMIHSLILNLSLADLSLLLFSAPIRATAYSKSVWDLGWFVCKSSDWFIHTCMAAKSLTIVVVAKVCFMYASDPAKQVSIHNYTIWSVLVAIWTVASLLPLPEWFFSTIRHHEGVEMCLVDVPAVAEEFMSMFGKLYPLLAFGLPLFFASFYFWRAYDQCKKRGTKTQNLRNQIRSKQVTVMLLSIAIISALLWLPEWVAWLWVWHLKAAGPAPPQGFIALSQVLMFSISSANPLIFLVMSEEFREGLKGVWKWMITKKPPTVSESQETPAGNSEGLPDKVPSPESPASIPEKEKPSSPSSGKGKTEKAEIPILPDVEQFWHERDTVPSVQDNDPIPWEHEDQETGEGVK

SMILES	EC50
CCC(C)C1N=C2c3ccccc3N=C(SCC(=O)N3CC(C)CC(C)C3)N2C1=O (stereo not drawn)	> 29.4 µM (inactive)
CCC(=O)Oc1ccc2cc(-c3ccc(OC)c(OC)c3)c(=O)oc2c1	> 28.5 µM (inactive)
C1=Nc2ccccc2SC(c2cccnc2)=C1	> 28.2 µM (inactive)
CCN(CC)C(=O)CN(c1ccccc1)S(=O)(=O)c1ccc(C)cc1	> 28 µM (inactive)
CSc1ccc(/C=N/NC(=O)C[n+]2ccccc2)cc1	> 28 µM (inactive)
CCn1c(/C=C/C=C2\N(C)c3ccccc3C2(C)C)[n+](Cc2ccccc2)c2ccccc21	2.75 µM
O=C(Oc1ccc2cc(Br)ccc2c1)c1ccco1	> 25.9 µM (inactive)
C=CCN1C(=O)CS/C1=N\NC(=O)c1ccccc1	> 28.5 µM (inactive)
COc1cccc(-c2nc(-c3ccccn3)no2)c1	> 37.5 µM (inactive)
Cc1nc2c(C(=O)NCc3ccccn3)cnn2c(C)c1Cc1cccc(Cl)c1	> 29.5 µM (inactive)
O=S(=O)(c1ccc(-c2csc(=Nc3cccc(Cl)c3)n2CCCO)cc1)N1CCCCC1	> 17.6 µM (inactive)
C=CCOC(=O)CCN1C(=O)c2ccccc2C1=O	> 28 µM (inactive)
COc1ccccc1N=C1SC(CC(=O)Nc2cccc([N+](=O)[O-])c2)C(=O)N1C (stereo not drawn)	> 28 µM (inactive)
O=C(NN=C1CCCCC1)C(O)(c1ccccc1)c1ccccc1	> 28 µM (inactive)
CC(C)N1CCN(Cc2ccc(OC3CCCC3)cc2)CC1CCO (stereo not drawn)	0.00143 µM
Cc1nn(Cc2ccc(F)cc2)c(C)c1N	> 28 µM (inactive)
O=C(O)c1cccc(COc2ccc(CO)cc2Cl)c1	> 28 µM (inactive)
Cn1c(COc2ccc(Cl)cc2)nnc1SCC(=O)NCC(F)(F)F	> 28.4 µM (inactive)
O=C(Nc1c2c(nn1-c1cccc(Cl)c1)CSC2)c1ccccc1Br	> 20.9 µM (inactive)
O=c1oc2ccccc2cc1-c1cn2ccccc2n1	> 34.7 µM (inactive)
Cc1ccc(CNC(=O)c2csnn2)cc1	> 28 µM (inactive)
COc1ccccc1Cn1c(=S)[nH]c2cc(C(=O)N3CCC(C(N)=O)(N4CCCCC4)CC3)ccc2c1=O	inactive

SMILES	EC50
COc1cccc(/C=C(\C#N)c2nc3ccc(C)cc3[nH]2)c1OC	> 33.2 µM (inactive)
O=C(Nc1nc2cc3c(cc2s1)OCO3)C1=COCCO1	> 27.4 µM (inactive)
O=C(NC1(C(F)(F)F)NC(=O)N(c2ccc(F)cc2)C1=O)c1ccncc1 (stereo not drawn)	> 28 µM (inactive)
COc1cccc(-c2ccc(SCC(=O)Nc3cccc(NC(C)=O)c3)nn2)c1	> 27.4 µM (inactive)
O=C(CSc1nc(-c2ccccc2)cs1)Nc1ccccc1	> 28 µM (inactive)
Clc1ccc(-c2nc(-c3ccccn3)no2)c(Cl)c1	> 29.7 µM (inactive)
Cc1ccnc(SCc2cc(=O)c(OC(=O)c3cc(Cl)ccc3[N+](=O)[O-])co2)n1	> 28.4 µM (inactive)
O=C1CCCN1CCn1cnc2c(NCCOc3ccccc3)nc(N3CCc4ccccc4C3)nc21	> 27.9 µM (inactive)
CN1C(=O)C(=Cc2nc3ccccc3c(=O)n2-c2ccc([N+](=O)[O-])cc2)c2cc(Br)ccc21	> 19.1 µM (inactive)
CN(C)c1cccc2c(S(=O)(=O)Nc3nccnc3-c3ccc(C=O)cc3)cccc12	> 28 µM (inactive)
O=C(Nc1nc2c(s1)CCCC2)C1=COCCO1	> 27.4 µM (inactive)
O=C(O)c1cc(N=Cc2ccco2)ccc1O	> 28 µM (inactive)
COC(=O)CN1C(=O)S/C(=C\c2cc(Br)c(OC)c(OC)c2)C1=O	> 28 µM (inactive)
CCOC(=O)C(=O)N1CCN(c2ccccc2)CC1	> 28 µM (inactive)
CCOC(=O)c1cnc2c(OC)cccc2c1NC1CCCCC1	inactive
CCN(CC)c1nc(SC)nc(Cl)c1Cc1ccc(OC(C)C)cc1	> 25.2 µM (inactive)
COC(=O)c1c(NC(=O)c2cc(-c3ccc(CC(C)C)cc3)nc3ccccc23)sc(C)c1-c1ccccc1	> 23.4 µM (inactive)
Cc1ccc(Nc2nc(N(C)C)nc3c2cnn3C)cc1C	> 28.4 µM (inactive)
O=C(O)c1ccc(OCc2ccnc(Cl)c2)cc1	> 28 µM (inactive)
CC1(C)Cc2cccc(OCC(=O)NC3=NCCS3)c2O1	> 29.3 µM (inactive)
CC(=O)c1ccc(OC(=O)c2cccc(Br)c2)cc1	> 25.9 µM (inactive)
Cc1ccc(NC(=O)/C(=C/c2cccc([N+](=O)[O-])c2)NC(=O)c2cccs2)c(Br)c1	> 18.7 µM (inactive)

SMILES	EC50
C/C=C/C(=O)N(CC)c1ccccc1C	> 28.9 µM (inactive)
COc1ccc2o/c(=N\NC(=O)c3ccccc3Nc3ccccc3)c(C(N)=O)cc2c1	> 28 µM (inactive)
CC(=O)OCC1=C(C(=O)O)N2C(=O)[C@@H](NC(=O)Cc3cccs3)[C@H]2SC1	> 28 µM (inactive)
O=C(NCc1ccc(Cl)cc1)C1C2C=CC3(CN(Cc4ccccc4)C(=O)C13)O2 (stereo not drawn)	> 25.1 µM (inactive)
O=C(Nc1cc(C(F)(F)F)ccc1F)C1CCCC1	> 28 µM (inactive)
Cc1ccn2cc(-c3ccc(F)cc3)nc2c1	> 30.9 µM (inactive)
C/C(=C\c1ccccc1)C(=O)NCCc1ccccc1	> 28 µM (inactive)
CSC1=NSC2=NC(=O)/C(=C\c3ccc([N+](=O)[O-])cc3)C(=N)N12	> 28 µM (inactive)
CCCN1C(=O)C[n+]2ccccc2C1C(=O)Nc1ccccc1C (stereo not drawn)	> 28 µM (inactive)
CC(=O)c1ccc(NC(=O)COC(=O)c2ccc3c(c2)nc(C)n3-c2ccccc2)cc1	> 28.8 µM (inactive)
O=C(O)c1ccc2nc(-c3ccccc3)[nH]c2c1	> 26.3 µM (inactive)
COc1ccc(-c2noc(CCC(=O)Nc3ccc(C)c(C)c3)n2)cc1	> 28 µM (inactive)
COC(=O)c1cccc(NC(=O)c2cccc(Br)c2)c1C	> 28 µM (inactive)
CC(C)(C)OC(=O)NNC(=O)/C=C/c1cc(Br)ccc1F	> 28.1 µM (inactive)
COC(=O)c1ccc(Nc2ncnc3c2cnn3-c2ccc(C)cc2C)cc1	0.00158 µM
O=C(Cc1cn(-c2ccc(Cl)nn2)c2ccccc12)NCCN1CCOCC1	> 28.1 µM (inactive)
Cc1ccn(CCC(=O)NCC2Cc3cc(-c4cnccn4)cc(Cl)c3O2)n1 (stereo not drawn)	> 28 µM (inactive)
COc1ccc(-c2noc(-c3cc4ccc(OC)cc4oc3=O)n2)cc1	> 28 µM (inactive)
Cn1c(=O)c2c(nc(NCCO)n2Cc2ccccc2F)n(C)c1=O	> 34.4 µM (inactive)
COc1ccccc1OCCCN1C(=O)C(=O)c2cc(Br)cc(C)c21	> 28 µM (inactive)
CCC(C)c1ccccc1NC(=S)NC(C)=O (stereo not drawn)	> 28 µM (inactive)
O=C(Nc1ncc(C(O)(C(F)(F)F)C(F)(F)F)s1)c1ccccc1Cl	> 30.5 µM (inactive)

SMILES	EC50
O=C(O)C1CCCN(c2ncnc3scc(-c4ccccc4)c23)C1 (stereo not drawn)	> 29.7 µM (inactive)
O=C(Nc1noc2ccccc12)c1ccc(F)cc1	> 28 µM (inactive)
CCOc1ccccc1NC(=O)N1CCC2(CC1)OCCO2	> 28 µM (inactive)
COc1ccc(-c2ccc(C(N)=O)s2)cn1	> 28.1 µM (inactive)
COc1cc(S(=O)(=O)N2CCN(c3ccc(C)c(C)c3)CC2)ccc1F	> 28 µM (inactive)
CCn1c(SCC(=O)c2ccccc2)nnc1C(C)C	> 28 µM (inactive)
COc1ccc(Cl)cc1NC(=O)Nc1cccc([N+](=O)[O-])c1C	> 28 µM (inactive)
CCCCCCOc1ccc(C(=O)O)cc1OC	> 31.1 µM (inactive)
Cc1ccsc1C(=O)Nc1nc2ccc(S(C)(=O)=O)cc2s1	> 28.6 µM (inactive)
O=C1NC(c2ccc(Cl)cc2Cl)Oc2ccccc21 (stereo not drawn)	> 28 µM (inactive)
CCCCN(CCNC(=O)Cn1ncc2c1-c1cc(C)ccc1OC2)Cc1ccco1	> 28 µM (inactive)
COc1ccc(C(=O)Nc2nc(C)cs2)c(OC)n1	> 28 µM (inactive)
O=C(NCc1ccc(F)cc1)c1cc(-c2ccccc2Cl)nc2ccccc12	> 32.1 µM (inactive)
CCCNC(=O)c1ccc2nc(-c3csc4ccccc34)sc2c1	> 25.7 µM (inactive)
CC(=O)Nc1ccc(Nc2nc(-c3ccc(C(=O)NC4CC4)cc3)nc3nc[nH]c23)cc1	> 27.8 µM (inactive)
COc1ccccc1CN[C@H]1C[C@H]2C(=O)N[C@@H](CC(C)C)C(=O)N2C1	> 28 µM (inactive)
C/C(=N\NC(=S)NCc1ccco1)c1cccc([N+](=O)[O-])c1	> 28.2 µM (inactive)
CCOC(=O)c1c(C)c(C(=O)NCCC(C)C)c(C)n1C	> 28 µM (inactive)
N#CC1=C(N)Oc2n[nH]c(C34CC5CC(CC(C5)C3)C4)c2C1c1cccnc1 (stereo not drawn)	> 27 µM (inactive)
COc1ccc(/C=C2/NC(=O)N(c3cccc(Cl)c3)C2=O)c(OC)c1	> 28 µM (inactive)
COc1ccc(Br)cc1C(=O)NCC1COc2ccccc2O1 (stereo not drawn)	> 28 µM (inactive)
Cn1c(=O)c2c(nc(N3CCCCCC3)n2CCc2ccccc2)n(C)c1=O	> 27.9 µM (inactive)
